“Also recorded” adds a separate entry of the source.
Experiments:
[1] = system: A. stephensi; assay: Mosquito lifespan with inhibitor in water or bloodmeal; type: in vivo, Anopheles stephensi; conditions: 1 μM or 10 μM daily in water or once weekly via bloodmeal
[2] = system: A. freeborni; assay: as above; type: in vivo, Anopheles freeborni; conditions: 1 μM or 10 μM daily in water or once weekly via bloodmeal
[3] = system: Plasmodium falciparum; assay: P. falciparum growth in vitro, flow cytometry; type: cell-based; conditions: 1 μM or 10 μM (up to 10 μM), 48 h, relative to vehicle control
[4] = system: anti-parasite genes; assay: Midgut expression of anti-parasite/immune genes, quantitative PCR; type: in vivo, Anopheles stephensi; conditions: BIRB 796 with killed lysate of P. falciparum; 6 h post-feeding
[5] = system: Plasmodium falciparum; assay: P. falciparum development (oocysts) in A. stephensi after inhibitor-supplemented bloodmeal; type: in vivo, Anopheles stephensi; conditions: 10 μM in bloodmeal
Experimental: Midguts were dissected and oocysts were counted at 10 days following infection. Dots in FIG. 3A and FIG. 3C represent oocyst numbers in one midgut, while percentage positive midguts or percentage of midguts with at least one oocyst are represented as means in FIG. 3B and FIG. 3D. Mean oocysts per midgut (lines, numbers on graph) were analyzed by ANOVA (alpha=0.05) for overall significance and by Student-Neuman-Keuls for pairwise comparisons using Graphpad Prism version 4.0 (San Diego, Calif.). Prevalences of mosquito infection (indicated on graph) were analyzed by chi-square (alpha=0.05).

[6] = system: Anopheles stephensi p38 MAPK; assay: MK2 phosphorylation in LPS-stimulated ASE cells, western blot; type: cell-based; conditions: ASE cells pre-incubated with 10 μM inhibitor, 2 h later 1 μg/ml LPS

Row | SMILES | impact on lifespan [1] | impact on lifespan [2] | P. falciparum growth in vitro (parasitemia) [3] | midgut immune gene expression levels [4] | infection prevalence in A. stephensi ([5]; midguts with at least one oocyst at 10 days) | P. falciparum oocysts/midgut ([5]; oocysts counted at 10 days) | p-MK2 levels (phosphorylation of MK2) [6]
1 | Oc1c2ccccc2c2c3c(cccc13)N=N2 [SP600125, 1;9-Pyrazoloanthrone] | no negative impact | no negative impact | – | – | – | – | –
2 | Cc1ccc(-n2nc(C(C)(C)C)cc2NC(=O)Nc2ccc(OCCN3CCOCC3)c3ccccc23)cc1 [BIRB 796, 1-[5-tert-butyl-2-(4-methylphenyl)pyrazol-3-yl]-3-[4-(2-morpholin-4-ylethoxy)naphthalen-1-yl]urea] | – | – | Neither inhibitor significantly altered parasite growth | significantly different from controls | – | – | –
3 | C[S+]([O-])c1ccc(-c2nc(-c3ccc(F)cc3)c(-c3ccncc3)[nH]2)cc1 (centres unmarked) [SB203580, 4-[4-(4-fluorophenyl)-2-(4-methylsulfinylphenyl)-1H-imidazol-5-yl]pyridine] | – | – | Neither inhibitor significantly altered parasite growth; also recorded: no such effects | – | significantly reduced | significantly reduced | undetectable

— patent US9918989B2, “Combination therapies for malaria” (The Regents of the University of California, priority 2013, dated 2018)
